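All cell lines were grown in 96-well plates and treated with compound for 48 hours. The concentration for 50% growth inhibition is given as GI50. TGI: concentration producing complete growth inhibition.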
Legend:
Test in all cases: DTP human tumour cell line panel, 48 h
OVCAR-5 ovarian = system: OVCAR-5 ovarian
T-47D breast = system: T-47D breast
NCI-H460 lung = system: NCI-H460 lung
RXF 393 renal = system: RXF 393 renal
HT29 colon = system: HT29 colon
SR leukemia = system: SR leukemia
U251 CNS = system: U251 CNS
SN12C renal = system: SN12C renal
IGROV1 ovarian = system: IGROV1 ovarian
SK-MEL-5 melanoma = system: SK-MEL-5 melanoma
UACC-257 melanoma = system: UACC-257 melanoma
SNB-75 CNS = system: SNB-75 CNS
CCRF-CEM leukemia = system: CCRF-CEM leukemia
SW-620 colon = system: SW-620 colon
SF-268 CNS = system: SF-268 CNS
K-562 leukemia = system: K-562 leukemia
SF-539 CNS = system: SF-539 CNS
KM12 colon = system: KM12 colon
CAKI-1 renal = system: CAKI-1 renal
MOLT-4 leukemia = system: MOLT-4 leukemia
SNB-19 CNS = system: SNB-19 CNS
A498 renal = system: A498 renal
NCI-H226 lung = system: NCI-H226 lung
COLO 205 colon = system: COLO 205 colon
NCI/ADR-RES ovarian = system: NCI/ADR-RES ovarian
HCT-116 colon = system: HCT-116 colon
MDA-MB-231 breast = system: MDA-MB-231 breast
M14 melanoma = system: M14 melanoma
HCT-15 colon = system: HCT-15 colon
NCI-H23 lung = system: NCI-H23 lung
HCC-2998 colon = system: HCC-2998 colon
BT-549 breast = system: BT-549 breast
SF-295 CNS = system: SF-295 CNS
SK-MEL-28 melanoma = system: SK-MEL-28 melanoma
UACC-62 melanoma = system: UACC-62 melanoma
A549 NSCLC = system: A549 NSCLC
OVCAR-3 ovarian = system: OVCAR-3 ovarian
MCF7 breast = system: MCF7 breast
MALME-3M melanoma = system: MALME-3M melanoma
OVCAR-8 ovarian = system: OVCAR-8 ovarian
HOP-62 NSCLC = system: HOP-62 NSCLC
EKVX NSCLC = system: EKVX NSCLC
SK-MEL-2 melanoma = system: SK-MEL-2 melanoma
DU-145 prostate = system: DU-145 prostate
SK-OV-3 ovarian = system: SK-OV-3 ovarian
ACHN renal = system: ACHN renal
OVCAR-4 ovarian = system: OVCAR-4 ovarian
HL-60(TB) leukemia = system: HL-60(TB) leukemia
LOX IMVI melanoma = system: LOX IMVI melanoma
786-0 renal = system: 786-0 renal
TK-10 renal = system: TK-10 renal
NCI-H522 lung = system: NCI-H522 lung
RPMI-8226 leukemia = system: RPMI-8226 leukemia
HOP-92 NSCLC = system: HOP-92 NSCLC
PC-3 prostate = system: PC-3 prostate
MDA-MB-435 = system: MDA-MB-435
UO-31 renal = system: UO-31 renal
HS 578T breast = system: HS 578T breast

Compound `COc1ccc(/C(=N\NC(N)=S)c2ccc(Cl)cc2)cc1OC` has a GI50 (OVCAR-5 ovarian) of 5.44 µM, a TGI (OVCAR-5 ovarian) of 21.3 µM and a GI50 (T-47D breast) of 3.16 µM. The TGI (T-47D breast) was 25 µM, the GI50 (NCI-H460 lung) was 3.58 µM and the TGI (NCI-H460 lung) was 13 µM. It also gave a GI50 (RXF 393 renal) of 1.94 µM, a TGI (RXF 393 renal) of 7.26 µM and a GI50 (HT29 colon) of 2.69 µM. For the same compound, the TGI (HT29 colon) was 9.48 µM, the GI50 (SR leukemia) was 2.43 µM and the TGI (SR leukemia) was greater than 39.7 µM. The GI50 (U251 CNS) was 3.71 µM, the TGI (U251 CNS) was 15.4 µM and the GI50 (SN12C renal) was 4.63 µM. For the same compound, the TGI (SN12C renal) was 18.5 µM, the GI50 (IGROV1 ovarian) was 4.11 µM and the TGI (IGROV1 ovarian) was 20.4 µM. It also gave a GI50 (SK-MEL-5 melanoma) of 4.14 µM, a TGI (SK-MEL-5 melanoma) of 14 µM and a GI50 (UACC-257 melanoma) of 8.13 µM. For the same compound, the TGI (UACC-257 melanoma) was 26.2 µM, the GI50 (SNB-75 CNS) was 1.69 µM and the TGI (SNB-75 CNS) was 6.73 µM. The GI50 (CCRF-CEM leukemia) was 2.63 µM, the TGI (CCRF-CEM leukemia) was 16.6 µM and the GI50 (SW-620 colon) was 3.65 µM. For the same compound, the TGI (SW-620 colon) was 17.5 µM, the GI50 (SF-268 CNS) was 8.87 µM and the TGI (SF-268 CNS) was 30.3 µM. For the same compound, the GI50 (K-562 leukemia) was 1.04 µM, the TGI (K-562 leukemia) was greater than 41.1 µM and the GI50 (SF-539 CNS) was 2.63 µM. It also gave a TGI (SF-539 CNS) of 9.11 µM, a GI50 (KM12 colon) of 3.56 µM and a TGI (KM12 colon) of 19.4 µM. It also gave a GI50 (CAKI-1 renal) of 3.28 µM, a TGI (CAKI-1 renal) of 17.1 µM and a GI50 (MOLT-4 leukemia) of 4.91 µM. It also gave a TGI (MOLT-4 leukemia) of 29.2 µM, a GI50 (SNB-19 CNS) of 5.22 µM and a TGI (SNB-19 CNS) of 21.5 µM. It also gave a GI50 (A498 renal) of 5.93 µM, a TGI (A498 renal) of 13.4 µM and a GI50 (NCI-H226 lung) of 2.72 µM. It also gave a TGI (NCI-H226 lung) of 17.6 µM, a GI50 (COLO 205 colon) of 3.37 µM and a TGI (COLO 205 colon) of 10.8 µM. For the same compound, the GI50 (NCI/ADR-RES ovarian) was 2.34 µM, the TGI (NCI/ADR-RES ovarian) was 9.89 µM and the GI50 (HCT-116 colon) was 3.59 µM. For the same compound, the TGI (HCT-116 colon) was 15.6 µM, the GI50 (MDA-MB-231 breast) was 4.48 µM and the TGI (MDA-MB-231 breast) was 18.2 µM. It also gave a GI50 (M14 melanoma) of 2.93 µM, a TGI (M14 melanoma) of 15.2 µM and a GI50 (HCT-15 colon) of 2.06 µM. It also gave a TGI (HCT-15 colon) of 15.6 µM, a GI50 (NCI-H23 lung) of 4.7 µM and a TGI (NCI-H23 lung) of 18.2 µM. The GI50 (HCC-2998 colon) was 4.36 µM, the TGI (HCC-2998 colon) was 16.5 µM and the GI50 (BT-549 breast) was 2.4 µM. It also gave a TGI (BT-549 breast) of 6.33 µM, a GI50 (SF-295 CNS) of 3.56 µM and a TGI (SF-295 CNS) of 14.2 µM. The GI50 (SK-MEL-28 melanoma) was 6.95 µM, the TGI (SK-MEL-28 melanoma) was 21.7 µM and the GI50 (UACC-62 melanoma) was 3.7 µM. For the same compound, the TGI (UACC-62 melanoma) was 19.6 µM, the GI50 (A549 NSCLC) was 5.94 µM and the TGI (A549 NSCLC) was 32.3 µM. For the same compound, the GI50 (OVCAR-3 ovarian) was 3.47 µM, the TGI (OVCAR-3 ovarian) was 14.9 µM and the GI50 (MCF7 breast) was 3.12 µM. The TGI (MCF7 breast) was 15.5 µM, the GI50 (MALME-3M melanoma) was 3.54 µM and the TGI (MALME-3M melanoma) was 19.2 µM. For the same compound, the GI50 (OVCAR-8 ovarian) was 4.41 µM, the TGI (OVCAR-8 ovarian) was 20.5 µM and the GI50 (HOP-62 NSCLC) was 4.38 µM. The TGI (HOP-62 NSCLC) was 20.8 µM, the GI50 (EKVX NSCLC) was 4.95 µM and the TGI (EKVX NSCLC) was 28.3 µM. The GI50 (SK-MEL-2 melanoma) was 1.67 µM, the TGI (SK-MEL-2 melanoma) was 4.67 µM and the GI50 (DU-145 prostate) was 5.95 µM. It also gave a TGI (DU-145 prostate) of 22.5 µM, a GI50 (SK-OV-3 ovarian) of 3.38 µM and a TGI (SK-OV-3 ovarian) of 16.1 µM. For the same compound, the GI50 (ACHN renal) was 5.89 µM, the TGI (ACHN renal) was 29.2 µM and the GI50 (OVCAR-4 ovarian) was 7.01 µM. The TGI (OVCAR-4 ovarian) was 40.7 µM, the GI50 (HL-60(TB) leukemia) was 1.77 µM and the TGI (HL-60(TB) leukemia) was 8.05 µM. The GI50 (LOX IMVI melanoma) was 4.41 µM, the TGI (LOX IMVI melanoma) was 18.2 µM and the GI50 (786-0 renal) was 7.54 µM. For the same compound, the TGI (786-0 renal) was 23.1 µM, the GI50 (TK-10 renal) was 11.1 µM and the TGI (TK-10 renal) was 31.6 µM. It also gave a GI50 (NCI-H522 lung) of 1.37 µM, a TGI (NCI-H522 lung) of 4.62 µM and a GI50 (RPMI-8226 leukemia) of 3.4 µM. For the same compound, the TGI (RPMI-8226 leukemia) was 16.4 µM, the GI50 (HOP-92 NSCLC) was 4.67 µM and the TGI (HOP-92 NSCLC) was 17.4 µM. For the same compound, the GI50 (PC-3 prostate) was 3.76 µM, the TGI (PC-3 prostate) was 20.1 µM and the GI50 (MDA-MB-435) was 0.638 µM. The TGI (MDA-MB-435) was 2.84 µM, the GI50 (UO-31 renal) was 3.34 µM and the TGI (UO-31 renal) was 16.6 µM. For the same compound, the GI50 (HS 578T breast) was 2.77 µM and the TGI (HS 578T breast) was 13.8 µM.

Source: PubChem BioAssay (NCI)
